From US20050112573A1, “Method of detecting toxic substance” (priority 2001, published 2005)

System: yeast genes (level of expressed mRNA)
Assay: DNA chip analysis of expressed mRNA of yeast genes after 2 h culture with a toxic chemical substance
Format: cell-based, Saccharomyces cerevisiae S288C
Description: Yeast (Saccharomyces cerevtisiae S288C (α SUC2mal mel gap2 CUP1)) were cultured at 25° C. on YPD medium (yeast extract 1%, polypepton 2%, glucose 2%). One of toxic chemical substances was added to the cell at logarithmic growth phase, and the cell was further cultured for two hours. Cell was cultured without any chemical substance in the same condition, and was used as control. Concentrations of the chemical substances were defined to inhibit the growth of the yeast but not lead to death.
After the completion of cultivation, the culture was centrifuged to collect the cells. To the cells, sodium acetate buffer (50 mM sodium acetate, 10 mM EDTA, 1% SDS) was added, and the mixture was shaken at 65° C. for five minutes, followed by returning to room temperature, and obtaining the supernatant, which procedure was repeated two times. To the supernatant, ½ amount of a solution of phenol/chloroform was added, and the mixture was centrifuged to give a supernatant, which was added with an equal amount of chloroform, and the mixture was centrifuged to give a supernatant. To the supernatant, an equal amount of isopropanol containing 0.3 M sodium acetate was added, and the mixture was allowed to stand at room temperature for 30 minutes, after which the mixture was centrifuged to give a sediment of the whole RNAs. Seventy % ethanol was added to the sediment, and the mixture was again centrifuged to give a sediment, which was then dried and dissolved in water. mRNA was isolated from the whole RNAs as followings. In view of the fact that a poly A chain is attached to the 3′ terminus of mRNA, a polynucleotide having a poly T structure which was immobilized on the surface of latex beads was used to trap the mRNA, and then the mRNA was washed and eluted with spine column (Oligotex-dT30<Super>mRNA Purification Kit, Takara). Reverse transcription of the mRNA was conducted with a reverse transcriptase (Super Script II Reverse Transcriptase; catalogue No. 18064-014, GibcoBRL) using fluorescence-labeled nucleotides to give cDNAs that were introduced with Cy3-dUTP or Cy5-dUTP during the reverse transcription.
The labeled cDNAs were dissolved in TE buffer (10 mM Tris-HCl/1 mM EDTA, pH8.0), and the solution was dropped on the DNA chip containing the whole genes of yeast (DNA Chip Research Inc. Japan) so that the cDNAs were hybridized on the DNA chip at 65° C. for over 12 hours. The fluoresces intensity of the DNA chip was read with a scanner, and the ratio relative to the fluorescence intensity resulting from the absence of chemical substance was estimated as the following, which is shown in Tables 1 to 9: [formula]
In the Tables, “Intensity” indicated in the rightmost column is a value of the level of expressed mRNA of each gene in control cells as divided by the average level of the expressions of the whole genes.

COc1cc(CNC(=O)CCCCC=CC(C)C)ccc1O [(12), 8-methyl-N-vanillyl-6-nonenamide]
1.7: level of expressed mRNA in the presence of chemical substance/in its absence (gene YCL009C)
2.0: level of expressed mRNA in the presence of chemical substance/in its absence (gene YAR071W)
1.2: The level of expressed mRNA in the presence of chemical substance/absence: YAL014C (gene YAL014C) | level of expressed mRNA in the presence of chemical substance/in its absence (gene YAL038W) | The level of expressed mRNA in the presence of chemical substance/absence: YBR013C (gene YBR013C) | level of expressed mRNA in the presence of chemical substance/in its absence (gene YBR035C) | level of expressed mRNA in the presence of chemical substance/in its absence (gene YBR111C) | level of expressed mRNA in the presence of chemical substance/in its absence (gene YBR183W) | The level of expressed mRNA in the presence of chemical substance/absence: YBR287W (gene YBR287W) | level of expressed mRNA in the presence of chemical substance/in its absence (gene YBR299W) | level of expressed mRNA in the presence of chemical substance/in its absence (gene YDL022W)
1.1: level of expressed mRNA in the presence of chemical substance/in its absence (gene YAL012W) | The level of expressed mRNA in the presence of chemical substance/absence: YAL049C (gene YAL049C) | The level of expressed mRNA in the presence of chemical substance/absence: YBR063C (gene YBR063C) | The level of expressed mRNA in the presence of chemical substance/absence: YDL173W (gene YDL173W) | The level of expressed mRNA in the presence of chemical substance/absence: YDL193W (gene YDL193W)
0.6: level of expressed mRNA in the presence of chemical substance/in its absence (gene YAL044C) | level of expressed mRNA in the presence of chemical substance/in its absence (gene YBR014C) | The level of expressed mRNA in the presence of chemical substance/absence: YDR090C (gene YDR090C) | The level of expressed mRNA in the presence of chemical substance/absence: YDR128W (gene YDR128W)
0.8: The level of expressed mRNA in the presence of chemical substance/absence: YAR064W (gene YAR064W) | level of expressed mRNA in the presence of chemical substance/in its absence (gene YBR023C) | level of expressed mRNA in the presence of chemical substance/in its absence (gene YBR068C) | The level of expressed mRNA in the presence of chemical substance/absence: YCR007C (gene YCR007C)
0.5: The level of expressed mRNA in the presence of chemical substance/absence: YBR281C (gene YBR281C)
0.9: The level of expressed mRNA in the presence of chemical substance/absence: YAL018C (gene YAL018C) | The level of expressed mRNA in the presence of chemical substance/absence: YAR047C (gene YAR047C) | The level of expressed mRNA in the presence of chemical substance/absence: YBL044W (gene YBL044W) | The level of expressed mRNA in the presence of chemical substance/absence: YBR124W (gene YBR124W) | level of expressed mRNA in the presence of chemical substance/in its absence (gene YBR222C) | The level of expressed mRNA in the presence of chemical substance/absence: YCL044C (gene YCL044C) | level of expressed mRNA in the presence of chemical substance/in its absence (gene YCR048W) | The level of expressed mRNA in the presence of chemical substance/absence: YDL089W (gene YDL089W) | The level of expressed mRNA in the presence of chemical substance/absence: YDL233W (gene YDL233W) | The level of expressed mRNA in the presence of chemical substance/absence: YDR071C (gene YDR071C)
1.0: The level of expressed mRNA in the presence of chemical substance/absence: YAL017W (gene YAL017W) | level of expressed mRNA in the presence of chemical substance/in its absence (gene YAL054C) | The level of expressed mRNA in the presence of chemical substance/absence: YBR012C (gene YBR012C) | level of expressed mRNA in the presence of chemical substance/in its absence (gene YBR050C) | The level of expressed mRNA in the presence of chemical substance/absence: YBR129C (gene YBR129C) | level of expressed mRNA in the presence of chemical substance/in its absence (gene YBR145W) | The level of expressed mRNA in the presence of chemical substance/absence: YCL056C (gene YCL056C) | The level of expressed mRNA in the presence of chemical substance/absence: YDL046W (gene YDL046W) | level of expressed mRNA in the presence of chemical substance/in its absence (gene YDR009W) | The level of expressed mRNA in the presence of chemical substance/absence: YDR109C (gene YDR109C)
0.7: level of expressed mRNA in the presence of chemical substance/in its absence (gene YBL001C) | The level of expressed mRNA in the presence of chemical substance/absence: YBL100C (gene YBL100C) | The level of expressed mRNA in the presence of chemical substance/absence: YBR051W (gene YBR051W) | The level of expressed mRNA in the presence of chemical substance/absence: YBR066C (gene YBR066C) | The level of expressed mRNA in the presence of chemical substance/absence: YBR162C (gene YBR162C) | The level of expressed mRNA in the presence of chemical substance/absence: YBR255W (gene YBR255W) | level of expressed mRNA in the presence of chemical substance/in its absence (gene YCL064C) | level of expressed mRNA in the presence of chemical substance/in its absence (gene YCR037C) | level of expressed mRNA in the presence of chemical substance/in its absence (gene YDR019C) | The level of expressed mRNA in the presence of chemical substance/absence: YDR078C (gene YDR078C)
1.3: level of expressed mRNA in the presence of chemical substance/in its absence (gene YBR029C) | level of expressed mRNA in the presence of chemical substance/in its absence (gene YCR098C)
